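These data come from cells grown in 96-well plates and exposed to compound for 48 hours at five concentrations. At the GI50, growth is halved. Definition used: TGI = concentration required for complete inhibition of growth.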
Assays:
Experiment in all cases: NCI tumour cell line growth inhibition, 48 h
HOP-62 NSCLC = test system: HOP-62 NSCLC
SK-MEL-2 melanoma = test system: SK-MEL-2 melanoma
UACC-62 melanoma = test system: UACC-62 melanoma
DU-145 prostate = test system: DU-145 prostate
A549 NSCLC = test system: A549 NSCLC
SW-620 colon = test system: SW-620 colon
NCI/ADR-RES ovarian = test system: NCI/ADR-RES ovarian
MDA-MB-435 = test system: MDA-MB-435
IGROV1 ovarian = test system: IGROV1 ovarian
UACC-257 melanoma = test system: UACC-257 melanoma
T-47D breast = test system: T-47D breast
MDA-MB-231 breast = test system: MDA-MB-231 breast
OVCAR-8 ovarian = test system: OVCAR-8 ovarian
OVCAR-5 ovarian = test system: OVCAR-5 ovarian
SNB-75 CNS = test system: SNB-75 CNS
HT29 colon = test system: HT29 colon
MOLT-4 leukemia = test system: MOLT-4 leukemia
K-562 leukemia = test system: K-562 leukemia
UO-31 renal = test system: UO-31 renal
LOX IMVI melanoma = test system: LOX IMVI melanoma
M14 melanoma = test system: M14 melanoma
NCI-H522 lung = test system: NCI-H522 lung
RXF 393 renal = test system: RXF 393 renal
TK-10 renal = test system: TK-10 renal
COLO 205 colon = test system: COLO 205 colon
SF-539 CNS = test system: SF-539 CNS
HL-60(TB) leukemia = test system: HL-60(TB) leukemia
SNB-19 CNS = test system: SNB-19 CNS
SF-268 CNS = test system: SF-268 CNS
HCC-2998 colon = test system: HCC-2998 colon
U251 CNS = test system: U251 CNS
786-0 renal = test system: 786-0 renal
OVCAR-3 ovarian = test system: OVCAR-3 ovarian
BT-549 breast = test system: BT-549 breast
HOP-92 NSCLC = test system: HOP-92 NSCLC
PC-3 prostate = test system: PC-3 prostate
SN12C renal = test system: SN12C renal
SR leukemia = test system: SR leukemia
CCRF-CEM leukemia = test system: CCRF-CEM leukemia
KM12 colon = test system: KM12 colon
NCI-H23 lung = test system: NCI-H23 lung
NCI-H460 lung = test system: NCI-H460 lung
MCF7 breast = test system: MCF7 breast
A498 renal = test system: A498 renal
CAKI-1 renal = test system: CAKI-1 renal
HS 578T breast = test system: HS 578T breast
MALME-3M melanoma = test system: MALME-3M melanoma
SK-OV-3 ovarian = test system: SK-OV-3 ovarian
SF-295 CNS = test system: SF-295 CNS
SK-MEL-5 melanoma = test system: SK-MEL-5 melanoma
SK-MEL-28 melanoma = test system: SK-MEL-28 melanoma
HCT-116 colon = test system: HCT-116 colon
HCT-15 colon = test system: HCT-15 colon
ACHN renal = test system: ACHN renal

Structure (SMILES): COc1cc2c(cc1OC)C(=O)C(Br)CC2 (stereo not drawn)
- GI50 (HOP-62 NSCLC): 6.09 µM
- TGI (HOP-62 NSCLC): 18.5 µM
- GI50 (SK-MEL-2 melanoma): 3.6 µM
- TGI (SK-MEL-2 melanoma): 9.98 µM
- GI50 (UACC-62 melanoma): 2.01 µM
- TGI (UACC-62 melanoma): 4.55 µM
- GI50 (DU-145 prostate): 4.61 µM
- TGI (DU-145 prostate): 16.2 µM
- GI50 (A549 NSCLC): 11.4 µM
- TGI (A549 NSCLC): 27.7 µM
- GI50 (SW-620 colon): 2.71 µM
- TGI (SW-620 colon): 6.39 µM
- GI50 (NCI/ADR-RES ovarian): 4.5 µM
- TGI (NCI/ADR-RES ovarian): 37.3 µM
- GI50 (MDA-MB-435): 2.87 µM
- TGI (MDA-MB-435): 10.4 µM
- GI50 (IGROV1 ovarian): 6.23 µM
- TGI (IGROV1 ovarian): 19.7 µM
- GI50 (UACC-257 melanoma): 3.02 µM
- TGI (UACC-257 melanoma): 11.3 µM
- GI50 (T-47D breast): 2.25 µM
- TGI (T-47D breast): 5.06 µM
- GI50 (MDA-MB-231 breast): 3.56 µM
- TGI (MDA-MB-231 breast): 13.4 µM
- GI50 (OVCAR-8 ovarian): 3.28 µM
- TGI (OVCAR-8 ovarian): 11.7 µM
- GI50 (OVCAR-5 ovarian): 5.47 µM
- TGI (OVCAR-5 ovarian): 18.2 µM
- GI50 (SNB-75 CNS): 5.27 µM
- TGI (SNB-75 CNS): 18.9 µM
- GI50 (HT29 colon): 3.72 µM
- TGI (HT29 colon): 12.1 µM
- GI50 (MOLT-4 leukemia): 3.22 µM
- TGI (MOLT-4 leukemia): 15 µM
- GI50 (K-562 leukemia): 3.96 µM
- TGI (K-562 leukemia): > 100 µM
- GI50 (UO-31 renal): 2.38 µM
- TGI (UO-31 renal): 6.77 µM
- GI50 (LOX IMVI melanoma): 1.74 µM
- TGI (LOX IMVI melanoma): 3.34 µM
- GI50 (M14 melanoma): 2.72 µM
- TGI (M14 melanoma): 7.1 µM
- GI50 (NCI-H522 lung): 1.57 µM
- TGI (NCI-H522 lung): 3.17 µM
- GI50 (RXF 393 renal): 1.55 µM
- TGI (RXF 393 renal): 3.01 µM
- GI50 (TK-10 renal): 5.17 µM
- TGI (TK-10 renal): 17.8 µM
- GI50 (COLO 205 colon): 2.03 µM
- TGI (COLO 205 colon): 3.72 µM
- GI50 (SF-539 CNS): 3.12 µM
- TGI (SF-539 CNS): 11.2 µM
- GI50 (HL-60(TB) leukemia): 4.91 µM
- TGI (HL-60(TB) leukemia): 28.9 µM
- GI50 (SNB-19 CNS): 8.96 µM
- TGI (SNB-19 CNS): 21.3 µM
- GI50 (SF-268 CNS): 4.36 µM
- TGI (SF-268 CNS): 15.7 µM
- GI50 (HCC-2998 colon): 11.5 µM
- TGI (HCC-2998 colon): 24.5 µM
- GI50 (U251 CNS): 12.8 µM
- TGI (U251 CNS): 25.7 µM
- GI50 (786-0 renal): 4.01 µM
- TGI (786-0 renal): 13.4 µM
- GI50 (OVCAR-3 ovarian): 2.5 µM
- TGI (OVCAR-3 ovarian): 6.88 µM
- GI50 (BT-549 breast): 2.15 µM
- TGI (BT-549 breast): 5.85 µM
- GI50 (HOP-92 NSCLC): 2.63 µM
- TGI (HOP-92 NSCLC): 12.2 µM
- GI50 (PC-3 prostate): 8.8 µM
- TGI (PC-3 prostate): 23.1 µM
- GI50 (SN12C renal): 3.49 µM
- TGI (SN12C renal): 12.8 µM
- GI50 (SR leukemia): 3.49 µM
- TGI (SR leukemia): > 100 µM
- GI50 (CCRF-CEM leukemia): 2.82 µM
- TGI (CCRF-CEM leukemia): 11.9 µM
- GI50 (KM12 colon): 5.77 µM
- TGI (KM12 colon): 19.3 µM
- GI50 (NCI-H23 lung): 2.89 µM
- TGI (NCI-H23 lung): 10.9 µM
- GI50 (NCI-H460 lung): 4.27 µM
- TGI (NCI-H460 lung): 16.9 µM
- GI50 (MCF7 breast): 3.13 µM
- TGI (MCF7 breast): 13.7 µM
- GI50 (A498 renal): 11.3 µM
- TGI (A498 renal): 23.6 µM
- GI50 (CAKI-1 renal): 3.56 µM
- TGI (CAKI-1 renal): 12.4 µM
- GI50 (HS 578T breast): 7.48 µM
- TGI (HS 578T breast): 37.4 µM
- GI50 (MALME-3M melanoma): 3.31 µM
- TGI (MALME-3M melanoma): 8.18 µM
- GI50 (SK-OV-3 ovarian): 4.55 µM
- TGI (SK-OV-3 ovarian): 13.7 µM
- GI50 (SF-295 CNS): 14.3 µM
- TGI (SF-295 CNS): 28.4 µM
- GI50 (SK-MEL-5 melanoma): 1.7 µM
- TGI (SK-MEL-5 melanoma): 3.19 µM
- GI50 (SK-MEL-28 melanoma): 4.85 µM
- TGI (SK-MEL-28 melanoma): 16.3 µM
- GI50 (HCT-116 colon): 1.74 µM
- TGI (HCT-116 colon): 3.72 µM
- GI50 (HCT-15 colon): 2.33 µM
- TGI (HCT-15 colon): 7.37 µM
- GI50 (ACHN renal): 1.86 µM
- TGI (ACHN renal): 3.7 µM
